From patent KR20200032170A, “편두통 및 군발성 두통의 치료를 위한 졸미트립탄의 치료적 농도를 신속하게 달성하는 방법” (조사노 파마 코포레이션, priority 2017, dated 2019)
Where two headings read alike, the source gives them in different places. Values belong to the molecule of their own block, whether it stands above or below them.

What was measured:
[1] = cited from earlier work
migraine (편두통) = settings: cited from earlier work; for pain freedom at 2 h / pain relief at 2 h: lowest oral dose; for pain freedom: nasal zolmitriptan
Zolmitriptan pKa = format: physicochemical

SMILES: CNCCc1c[nH]c2ccc(C[C@H]3COC(=O)N3)cc12 [N-데스메틸 졸미트립탄]
- metabolite concentration relative to zolmitriptan concentration ([1]; in vivo): 2/3

SMILES: CNS(=O)(=O)CCc1ccc2[nH]cc(C3CCN(C)CC3)c2c1 [나라트립탄]
- pain freedom at 2 h (migraine (편두통)): 18%
- pain relief at 2 h (migraine (편두통)): 49%

SMILES: CNS(=O)(=O)Cc1ccc2[nH]cc(CCN(C)C)c2c1 [수마트립탄]
- Tmax ([1]; oral tablet): ~2 h
- oral bioavailability ([1]; oral, as succinate): ~15%
- onset of action (migraine (편두통); injected): ≤ 10 min

- pKa (weak base) (Zolmitriptan pKa): 9.6
SMILES: CN(C)CCc1c[nH]c2ccc(C[C@H]3COC(=O)N3)cc12 [졸미트립탄]
- Tmax ([1]; nasal administration): ~1.5 h
- pain freedom at 2 h (migraine (편두통)): 29%
- pain relief at 2 h (migraine (편두통)): 62%
- pain freedom (migraine (편두통); 1 h): ~10%
- pain freedom (migraine (편두통); 2 h): < 25%
- pain freedom (migraine (편두통); 4 h): < 40%
- efficacy and tolerability (in words) (migraine (편두통); placebo-controlled clinical trials): 효과적이고 우수한 내약성을 갖는 것으로 보여졌다
